Reference: PMC7470033, “In vitro inhibitory effect of lysionotin on the activity of cytochrome P450 enzymes” (Pharmaceutical Biology, 2020)

What was measured:
Assay type in all cases: in vitro ADME
CYP2E1 = target: T1, CYP2E1 (Homo sapiens, UniProt P05181); assay: CYP2E1 inhibition in pooled human liver microsomes (chlorzoxazone 6-hydroxylation); conditions: 100 μM lysionotin, pooled HLMs, p > 0.05
T1 construct: Pooled HLMs were purchased from BD Biosciences Discovery Labware; tissue BD Biosciences Discovery Labware; host or cells: pooled human liver microsomes
Method: (§1) In this study, lysionotin was incubated with eight CYP isoforms (i.e., 1A2, 3A4, 2A6, 2E1, 2D6, 2C9, 2C19 and 2C8) in pooled human liver microsomes to investigate the interaction between lysionotin and CYPs, which can provide direct evidence for the effect of lysionotin on the activity of CYPs. In vitro, phenacetin (CYP1A2), testosterone (CYP3A4), coumarin (CYP2A6), chlorzoxazone (CYP2E1), dextromethorphan (CYP2D6), diclofenac (CYP2C9), S-mephenytoin (CYP2C19) and paclitaxel (CYP2C8) were used as probe substrates to determine the effects of lysionotin on eight CYP enzymes. In addition, enzyme kinetic studies were conducted to determine the inhibition model of lysionotin on CYP enzymes. […]
(§2) The concentration of lysionotin was 100 μM, and the positive inhibitor concentrations were as follows: 10 μM furafylline for CYP1A2, 1 μM ketoconazole for CYP3A4, 10 μM tranylcypromine for CYP2A6, 50 μM clomethiazole for CYP2E1, 10 μM quinidine for CYP2D6, 10 μM sulfaphenazole for CYP2C9, 50 μM tranylcypromine for CYP2C19, 5 μM montelukast for CYP2C8. […] The instrument used in this study was Agilent 1260 series instrument with DAD and FLD detector, and the quantitative assay for the corresponding metabolites was performed as previously reported and the detection conditions are summarised in Table 2 (He et al. [2015]; Lang et al. [2017]; Zhang et al. [2017]). […]

CYP2C9 = target: T2, CYP2C9 (Homo sapiens, UniProt P11712); assay: CYP2C9 inhibition in pooled human liver microsomes (diclofenac 4′-hydroxylation); conditions: 100 μM lysionotin, pooled HLMs, p > 0.05
T2 construct: Pooled HLMs were purchased from BD Biosciences Discovery Labware; tissue BD Biosciences Discovery Labware; host or cells: pooled human liver microsomes
Method: as §1, §2

CYP2C8 = target: T3, CYP2C8 (Homo sapiens, UniProt P10632); assay: CYP2C8 inhibition in pooled human liver microsomes (paclitaxel 6α-hydroxylation); conditions: for inhibition model of CYP2C8: Lineweaver-Burk plots
T3 construct: Pooled HLMs were purchased from BD Biosciences Discovery Labware; tissue BD Biosciences Discovery Labware; host or cells: pooled human liver microsomes
T3 sequence (P10632 1-490): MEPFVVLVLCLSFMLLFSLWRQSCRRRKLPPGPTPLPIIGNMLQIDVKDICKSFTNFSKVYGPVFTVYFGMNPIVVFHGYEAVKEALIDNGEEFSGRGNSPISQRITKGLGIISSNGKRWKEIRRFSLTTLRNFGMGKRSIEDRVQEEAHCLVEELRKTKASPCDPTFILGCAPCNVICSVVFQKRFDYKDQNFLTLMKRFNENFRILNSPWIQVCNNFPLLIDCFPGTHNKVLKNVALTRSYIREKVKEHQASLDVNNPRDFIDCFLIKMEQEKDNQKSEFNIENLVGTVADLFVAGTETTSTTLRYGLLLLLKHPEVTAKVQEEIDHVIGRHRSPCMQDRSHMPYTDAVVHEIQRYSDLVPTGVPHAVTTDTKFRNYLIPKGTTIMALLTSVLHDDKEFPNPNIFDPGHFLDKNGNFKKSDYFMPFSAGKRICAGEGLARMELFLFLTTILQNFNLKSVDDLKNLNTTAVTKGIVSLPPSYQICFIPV
Method: (§3) In this study, lysionotin was incubated with eight CYP isoforms (i.e., 1A2, 3A4, 2A6, 2E1, 2D6, 2C9, 2C19 and 2C8) in pooled human liver microsomes to investigate the interaction between lysionotin and CYPs, which can provide direct evidence for the effect of lysionotin on the activity of CYPs. In vitro, phenacetin (CYP1A2), testosterone (CYP3A4), coumarin (CYP2A6), chlorzoxazone (CYP2E1), dextromethorphan (CYP2D6), diclofenac (CYP2C9), S-mephenytoin (CYP2C19) and paclitaxel (CYP2C8) were used as probe substrates to determine the effects of lysionotin on eight CYP enzymes. In addition, enzyme kinetic studies were conducted to determine the inhibition model of lysionotin on CYP enzymes.
(§4) All incubations were performed in triplicate, and the mean values were utilised. The typical incubation systems contained 100 mM potassium phosphate buffer (pH 7.4), NADPH generating system (1 mM NADP^+, 10 mM glucose-6-phosphate, 1 U/mL of glucose-6-phosphate dehydrogenase, and 4 mM MgCl2), the appropriate concentration of HLMs, a corresponding probe substrate and lysionotin (or positive inhibitor for different probe reactions) in a final volume of 200 μL.
(§5) The concentration of lysionotin was 100 μM, and the positive inhibitor concentrations were as follows: 10 μM furafylline for CYP1A2, 1 μM ketoconazole for CYP3A4, 10 μM tranylcypromine for CYP2A6, 50 μM clomethiazole for CYP2E1, 10 μM quinidine for CYP2D6, 10 μM sulfaphenazole for CYP2C9, 50 μM tranylcypromine for CYP2C19, 5 μM montelukast for CYP2C8. Probe substrates, positive inhibitors (except for dextromethorphan and quinidine, which were dissolved in water), and lysionotin were dissolved in methanol, with a final concentration of 1% (v/v), and 1% neat methanol was added to the incubations without inhibitor. There was a 3 min preincubation period (at 37 °C) before the reaction was initiated by adding an NADPH-generating system. The reaction was terminated by adding a 100 μL acetonitrile (10% trichloroacetic acid for CYP2A6) internal standard mix, and the solution was placed on ice. The mixture was centrifuged at 12,000 rpm for 10 min, and an aliquot (50 μL) of supernatant was transferred for HPLC analysis. The instrument used in this study was Agilent 1260 series instrument with DAD and FLD detector, and the quantitative assay for the corresponding metabolites was performed as previously reported and the detection conditions are summarised in Table 2 (He et al. [2015]; Lang et al. [2017]; Zhang et al. [2017]). […]
(§6) The enzyme kinetic parameters for the probe reaction were estimated from the best fit line, using least-squares linear regression of the inverse substrate concentration versus the inverse velocity (Lineweaver-Burk plots), and the mean values were used to calculate Vmax and Km. Inhibition data from the experiments that were conducted using multiple compound concentrations were represented by Dixon plots, and inhibition constant (Ki) values were calculated using non-linear regression according to the following equation: v=(VmaxS)/(Km(1+I/Ki+S)for competitive inhibition v=(VmaxS)/[(Km+S((1+I/Ki)] for non-competitive inhibition where I is the concentration of the compound, Ki is the inhibition constant, S is the concentration of the substrate, and Km is the substrate concentration at half the maximum velocity (Vmax) of the reaction. The mechanism of the inhibition was inspected using the Lineweaver-Burk plots and the enzyme inhibition models. […]

CYP3A4 = target: T4, CYP3A4 (Homo sapiens, UniProt P08684); assay: CYP3A4 inhibition in pooled human liver microsomes (testosterone 6β-hydroxylation)
T4 construct: Pooled HLMs were purchased from BD Biosciences Discovery Labware; tissue BD Biosciences Discovery Labware; host or cells: pooled human liver microsomes
Method: as §3, §4, §2, §6

CYP2C19 = target: T5, CYP2C19 (Homo sapiens, UniProt P33261); assay: CYP2C19 inhibition in pooled human liver microsomes (S-mephenytoin 4-hydroxylation)
T5 construct: Pooled HLMs were purchased from BD Biosciences Discovery Labware; tissue BD Biosciences Discovery Labware; host or cells: pooled human liver microsomes
Method: as §3, §4, §5, §6

T4 sequence (P08684 whole entry): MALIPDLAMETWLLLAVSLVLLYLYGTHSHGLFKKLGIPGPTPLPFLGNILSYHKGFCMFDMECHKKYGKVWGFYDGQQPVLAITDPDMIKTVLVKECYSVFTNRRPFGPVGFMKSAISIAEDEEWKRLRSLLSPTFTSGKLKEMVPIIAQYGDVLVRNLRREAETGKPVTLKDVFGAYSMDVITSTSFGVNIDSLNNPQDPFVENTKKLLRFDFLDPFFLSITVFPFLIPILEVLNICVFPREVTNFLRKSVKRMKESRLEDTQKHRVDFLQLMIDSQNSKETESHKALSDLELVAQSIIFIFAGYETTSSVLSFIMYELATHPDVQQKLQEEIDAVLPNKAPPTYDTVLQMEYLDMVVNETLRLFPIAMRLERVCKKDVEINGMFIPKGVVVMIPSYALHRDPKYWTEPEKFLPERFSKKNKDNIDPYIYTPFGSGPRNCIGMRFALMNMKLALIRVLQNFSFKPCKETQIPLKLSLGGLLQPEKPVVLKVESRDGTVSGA
T5 sequence (P33261 whole entry): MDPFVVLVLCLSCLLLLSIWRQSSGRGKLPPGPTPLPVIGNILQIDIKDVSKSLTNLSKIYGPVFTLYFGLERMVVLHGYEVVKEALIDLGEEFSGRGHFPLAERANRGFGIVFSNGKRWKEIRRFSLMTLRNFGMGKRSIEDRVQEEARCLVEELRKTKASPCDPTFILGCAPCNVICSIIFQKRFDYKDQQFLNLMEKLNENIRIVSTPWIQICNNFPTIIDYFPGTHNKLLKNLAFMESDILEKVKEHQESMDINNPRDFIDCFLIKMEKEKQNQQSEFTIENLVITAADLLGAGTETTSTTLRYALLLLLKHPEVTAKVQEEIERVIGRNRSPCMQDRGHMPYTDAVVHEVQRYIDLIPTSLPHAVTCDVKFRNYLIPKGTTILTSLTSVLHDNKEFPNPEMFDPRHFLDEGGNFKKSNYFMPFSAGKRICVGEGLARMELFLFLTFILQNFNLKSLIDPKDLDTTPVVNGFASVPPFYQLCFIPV
T1 sequence (P05181 whole entry): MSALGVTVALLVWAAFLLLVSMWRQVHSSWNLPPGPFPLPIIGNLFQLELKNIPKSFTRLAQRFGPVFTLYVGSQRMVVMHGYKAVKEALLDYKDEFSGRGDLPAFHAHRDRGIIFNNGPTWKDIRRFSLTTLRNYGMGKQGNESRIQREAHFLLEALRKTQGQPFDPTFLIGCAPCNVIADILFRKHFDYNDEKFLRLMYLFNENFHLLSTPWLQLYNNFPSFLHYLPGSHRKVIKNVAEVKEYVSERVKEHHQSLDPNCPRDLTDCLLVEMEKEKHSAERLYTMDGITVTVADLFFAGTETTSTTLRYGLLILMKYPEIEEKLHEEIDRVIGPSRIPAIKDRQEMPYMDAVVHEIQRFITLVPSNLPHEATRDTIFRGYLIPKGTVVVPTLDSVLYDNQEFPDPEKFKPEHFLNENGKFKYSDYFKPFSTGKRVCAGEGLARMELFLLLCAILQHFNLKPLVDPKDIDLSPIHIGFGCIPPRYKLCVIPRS
T2 sequence (P11712 whole entry): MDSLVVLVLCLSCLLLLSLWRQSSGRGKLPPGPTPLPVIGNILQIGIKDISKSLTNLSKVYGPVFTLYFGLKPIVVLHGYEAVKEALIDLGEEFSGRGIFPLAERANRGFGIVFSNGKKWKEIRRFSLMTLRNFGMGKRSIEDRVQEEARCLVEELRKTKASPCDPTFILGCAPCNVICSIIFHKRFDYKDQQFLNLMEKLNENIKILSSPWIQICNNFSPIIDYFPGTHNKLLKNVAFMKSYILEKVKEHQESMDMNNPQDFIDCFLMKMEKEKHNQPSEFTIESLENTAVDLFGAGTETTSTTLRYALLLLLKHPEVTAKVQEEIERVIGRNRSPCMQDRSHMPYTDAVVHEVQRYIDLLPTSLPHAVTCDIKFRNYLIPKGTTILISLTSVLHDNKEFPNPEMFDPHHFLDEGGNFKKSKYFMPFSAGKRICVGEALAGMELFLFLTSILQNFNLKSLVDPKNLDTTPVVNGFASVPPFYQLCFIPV

effect on the activity of CYP2E1 (CYP2E1): not affected
effect on the activity of CYP2C9 (CYP2C9): not affected
activity of CYP2C8 decreased by (CYP2C8; 100 μM lysionotin, pooled HLMs): 67.22%
inhibition model of CYP2C8 (CYP2C8): competitively
inhibition model of CYP2C8 (CYP2C8; listed as Lysionotin): competitive
Ki (CYP2C8; competitive model, paclitaxel 5–20 μM, lysionotin 0–50 μM, pooled HLM): 14.5 µM
IC50 (CYP2C8; pooled HLMs, paclitaxel 6α-hydroxylation): 30 µM
activity of CYP3A4 decreased by (CYP3A4; 100 μM lysionotin, pooled HLMs): 86.33%
inhibition model of CYP3A4 (CYP3A4; Lineweaver-Burk plots): non-competitive
Ki (CYP3A4; non-competitive model, testosterone 20–100 μM, pooled HLM): 6.83 µM
IC50 (CYP3A4; pooled HLMs, testosterone 6β-hydroxylation): 13.8 µM
activity of CYP2C19 decreased by (CYP2C19; 100 μM lysionotin, pooled HLMs): 74.86%
inhibition model of CYP2C19 (CYP2C19; Lineweaver-Burk plots): competitively
SMILES: COc1ccc(-c2cc(=O)c3c(O)c(OC)c(O)c(OC)c3o2)cc1 [lysionotin, Lysionotin]
